Data reported in patent US10577363B2, “Substituted piperidine compounds” (EPIZYME, INC., priority 2014, dated 2020).

The compounds below were run against SMYD3 (Homo sapiens (Human), UniProt Q9H7B4) (assay: SMYD3 biochemical assay (SPA, 3H-SAM methylation of MEKK2 protein substrate)). Conditions: read-out: SMYD3 Biochem IC50 (μM)*.
Source text: S-adenosylmethionine (SAM), S-adenosylhomocysteine (SAH), Tris, Tween20, dimethylsulfoxide (DMSO), bovine skin gelatin (BSG), and Tris(2-carboxyethyl)phosphine hydrochloride solution (TCEP) were purchased from Sigma-Aldrich at the highest level of purity possible. ^3H-SAM was purchase from American Radiolabeled Chemicals with a specific activity of 80 Ci/mmol. 384-well opaque white OptiPlates and SPA beads (Perkin Elmer, catalog # RPNQ0013) were purchased from PerkinElmer.
N-terminally GST-tagged MEKK2 (MAP3K2) protein corresponding to reference sequence AAF63496.3 was purchased from Life Technologies (catalog # PV4010). This protein was expressed in High Five insect cells and purified to >85% purity. Protein identity was confirmed by MS/MS analysis after proteolytic digestion. The protein sequence used was:
Full-length human SMYD3 isoform 1 (BAB86333) was inserted into a modified pET21b plasmid containing a His6 tag and TEV and SUMO cleavage sites.
E. coli (BL21 codonplus RIL strain, Stratagene) were transformed with plasmid pEPZ553 by mixing competent cells and plasmid DNA and incubating on ice for 30 minutes followed by heat shock at 42° C. for 1 minute and cooling on ice for 2 minutes. Transformed cells were grown and selected on LB agar with 100 μg/mL ampicillin and 17 μg/mL chloramphenicol at 37° C. overnight. A single clone was used to inoculate 200 mL of LB medium with 100 μg/mL ampicillin and 17 μg/mL chloramphenicol and incubated at 37° C. on an orbital shaker at 180 rpm. Once in log growth, the culture was diluted 1:100 into 2 L of LB medium and grown until OD600 was about 0.3 after which the culture was incubated at 15° C. and 160 rpm. Once OD600 reached about 0.4, IPTG was added to a final concentration of 0.1 mM and the cells were grown overnight at 15° C. and 160 rpm. Cells were harvested by centrifugation at 8000 rpm, for 4 minutes at 4° C. and stored at −80° C. for purification.
The column was washed with Buffer B (Buffer A plus 20 mM imidazole) and His-tagged SMYD3 was eluted with Buffer C (Buffer A plus 300 mM imidazole). The His tag, TEV and SUMO cleavage sites were removed generating native SMYD3 by addition of ULP1 protein at a ratio of 1:200 (ULP1:SMYD3). Imidazole was removed by dialysis overnight in Buffer A. The dialyzed solution was applied to a second Nickel column and the native SMYD3 protein was collected from the column flow-through. The flow-through was dialyzed in Buffer D (25 mM Tris, 5% glycerol, 5 mM β-mercaptoethanol, 50 mM NaCl, pH7.8) and ULP1 was removed using a Q sepharose fast flow column.
General Procedure for SMYD3 Enzyme Assays on MEKK2 Protein Substrate
The assays were all performed in a buffer consisting of 25 mM Tris-Cl pH 8.0, 1 mM TCEP, 0.005% BSG, and 0.005% Tween 20, prepared on the day of use. […] DMSO (1 ul) was added to Columns 11, 12, 23, 24, rows A-H for the maximum signal control and 1 ul of SAH, a known product and inhibitor of SMYD3, was added to columns 11, 12, 23, 24, rows I-P for the minimum signal control. A cocktail (40 ul) containing the SMYD3 enzyme was added by Multidrop Combi (Thermo-Fisher). The compounds were allowed to incubate with SMYD3 for 30 min at room temperature, then a cocktail (10 ul) containing SAM and MEKK2 was added to initiate the reaction (final volume=51 ul). […] The assays were stopped by the addition of non-radiolabeled SAM (10 ul) to a final concentration of 100 uM, which dilutes the ^3H-SAM to a level where its incorporation into MEKK2 is no longer detectable. Radiolabeled MEKK2 was detected using a scintillation proximity assay (SPA). 10 uL of a 10 mg/mL solution of SPA beads in 0.5 M citric acid was added and the plates centrifuged at 600 rpm for 1 min to precipitate the radiolabeled MEKK2 onto the SPA beads. The plates were then read in a PerkinElmer TopCount plate reader to measure the quantity of ^3H-labeled MEKK2 as disintegrations per minute (dpm) or alternatively, referred to as counts per minute (cpm).

Row | IC50 [µM] | SMILES
1 | 5.69 | N[C@H]1C[C@@H](C(=O)N2CCC(NC(=O)c3cc(C4CC4)on3)CC2)C1 [compound 21, N-(1-((1s,3s)-3-aminocyclobutane-1-carbonyl)piperidin-4-yl)-5-cyclopropylisoxazole-3-carboxamide]
2 | 2 | C[C@H]1CN(C(=O)[C@H]2CC[C@H](N)CC2)CCC1NC(=O)c1cc(C2CC2)on1 (stereo partly drawn) [compound 24, N-((3S)-1-((1r,4S)-4-aminocyclohexane-1-carbonyl)-3-methylpiperidin-4-yl)-5-cyclopropylisoxazole-3-carboxamide]
3 | 0.299 | C[C@@H]1CN(C(=O)[C@H]2CC[C@H](N)CC2)CCC1NC(=O)c1cc(C2CC2)on1 (stereo partly drawn) [compound 25, N-((3R)-1-((1r,4R)-4-aminocyclohexane-1-carbonyl)-3-methylpiperidin-4-yl)-5-cyclopropylisoxazole-3-carboxamide]
4 | 5.24 | NC[C@@H](Cc1ccc(O)cc1)C(=O)N1CCC(NC(=O)c2cc(C3CC3)on2)CC1 [compound 26, (R)-N-(1-(3-amino-2-(4-hydroxybenzyl)propanoyl)piperidin-4-yl)-5-cyclopropylisoxazole-3-carboxamide]
5 | 0.342 | NC[C@H](Cc1ccc(O)cc1)C(=O)N1CCC(NC(=O)c2cc(C3CC3)on2)CC1 [compound 27, (S)-N-(1-(3-amino-2-(4-hydroxybenzyl)propanoyl)piperidin-4-yl)-5-cyclopropylisoxazole-3-carboxamide]
6 | 2.04 | NC[C@@H](Cc1ccc(O)c(I)c1)C(=O)N1CCC(NC(=O)c2cc(C3CC3)on2)CC1 [compound 28, (R)-N-(1-(3-amino-2-(4-hydroxy-3-iodobenzyl)propanoyl)piperidin-4-yl)-5-cyclopropylisoxazole-3-carboxamide]
7 | 42.7 | O=C(NC1CCN(C[C@H](O)Cc2ccc(O)cc2)CC1)c1cc(C2CC2)on1 [compound 30, (R)-5-cyclopropyl-N-(1-(2-hydroxy-3-(4-hydroxyphenyl)propyl)piperidin-4-yl)isoxazole-3-carboxamide]
8 | 5.1 | O=C(NC1CCN(C(=O)[C@@H](CO)Cc2ccc(O)c(I)c2)CC1)c1cc(C2CC2)on1 [compound 31, (R)-5-cyclopropyl-N-(1-(3-hydroxy-2-(4-hydroxy-3-iodobenzyl)propanoyl)piperidin-4-yl)isoxazole-3-carboxamide]
9 | 4.11 | C[C@H](N)CC(=O)NC[C@@H](Cc1ccc(O)c(I)c1)C(=O)N1CCC(NC(=O)c2cc(C3CC3)on2)CC1 [compound 32, N-(1-((R)-3-((S)-3-aminobutanamido)-2-(4-hydroxy-3-iodobenzyl)propanoyl)piperidin-4-yl)-5-cyclopropylisoxazole-3-carboxamide]
10 | 0.473 | C[C@H](N)CC(=O)NC[C@H](Cc1ccc(O)c(I)c1)C(=O)N1CCC(NC(=O)c2cc(C3CC3)on2)CC1 [compound 33, N-(1-((S)-3-((S)-3-aminobutanamido)-2-(4-hydroxy-3-iodobenzyl)propanoyl)piperidin-4-yl)-5-cyclopropylisoxazole-3-carboxamide]

Second part, the compound before the results:

Row | SMILES | IC50 [µM]
11 | N[C@@H](Cc1ccccc1)C(=O)N1CCC(NC(=O)c2cc(C3CC3)on2)CC1 [compound 1, N-(1-(L-phenylalanyl)piperidin-4-yl)-5-cyclopropylisoxazole-3-carboxamide] | 2.88
12 | N[C@H](Cc1c[nH]c2ccccc12)C(=O)N1CCC(NC(=O)c2cc(C3CC3)on2)CC1 [compound 2, N-(1-(D-tryptophyl)piperidin-4-yl)-5-cyclopropylisoxazole-3-carboxamide] | 15.5
13 | N[C@@H](Cc1ccc(O)cc1)C(=O)N1CCC(NC(=O)c2cc(C3CC3)on2)CC1 [compound 3, N-(1-(L-tyrosyl)piperidin-4-yl)-5-cyclopropylisoxazole-3-carboxamide] | 0.486
14 | NCC(=O)N[C@@H](Cc1c[nH]c2ccccc12)C(=O)N1CCC(NC(=O)c2cc(C3CC3)on2)CC1 [compound 4, 5-cyclopropyl-N-(1-(glycyl-L-tryptophyl)piperidin-4-yl)isoxazole-3-carboxamide] | 0.947
15 | C[C@@H]1CC(NC(=O)c2cc(C3CC3)on2)CCN1C(=O)[C@@H](N)Cc1ccc(O)cc1 (stereo partly drawn) [compound 6, N-((2R)-1-(L-tyrosyl)-2-methylpiperidin-4-yl)-5-cyclopropylisoxazole-3-carboxamide] | 2.97
16 | C[C@H]1CC(NC(=O)c2cc(C3CC3)on2)CCN1C(=O)[C@@H](N)Cc1ccc(O)cc1 (stereo partly drawn) [compound 7, N-((2S)-1-(L-tyrosyl)-2-methylpiperidin-4-yl)-5-cyclopropylisoxazole-3-carboxamide] | 1.04
17 | CN[C@@H](Cc1cn(C)c2ccccc12)C(=O)N1CCC(NC(=O)c2cc(C3CC3)on2)CC1 [compound 8, 5-cyclopropyl-N-(1-(Na,1-dimethyl-L-tryptophyl)piperidin-4-yl)isoxazole-3-carboxamide] | 1.2
18 | N[C@@H](Cc1ccc(O)c(Br)c1)C(=O)N1CCC(NC(=O)c2cc(C3CC3)on2)CC1 [compound 9, (S)-N-(1-(2-amino-3-(3-bromo-4-hydroxyphenyl)propanoyl)piperidin-4-yl)-5-cyclopropylisoxazole-3-carboxamide] | 0.214
19 | NC[C@H](Cc1ccccc1)C(=O)N1CCC(NC(=O)c2cc(C3CC3)on2)CC1 [compound 11, (S)-N-(1-(3-amino-2-benzylpropanoyl)piperidin-4-yl)-5-cyclopropylisoxazole-3-carboxamide] | 2.41
20 | N[C@H]1CC[C@H](C(=O)N2CCC(NC(=O)c3cc(C4CC4)on3)CC2)CC1 [compound 13, N-(1-((1r,4R)-4-aminocyclohexane-1-carbonyl)piperidin-4-yl)-5-cyclopropylisoxazole-3-carboxamide] | 1.29
21 | N[C@@H](Cc1ccc(O)cc1)CN1CCC(NC(=O)c2cc(C3CC3)on2)CC1 [compound 14, (S)-N-(1-(2-amino-3-(4-hydroxyphenyl)propyl)piperidin-4-yl)-5-cyclopropylisoxazole-3-carboxamide] | 4.59
22 | O=C(NC1CCN(C(=O)C2CCNCC2)CC1)c1cc(C2CC2)on1 [compound 15, 5-cyclopropyl-N-(1-(piperidine-4-carbonyl)piperidin-4-yl)isoxazole-3-carboxamide] | 8.55
23 | CN1CCC(C(=O)N2CCC(NC(=O)c3cc(C4CC4)on3)CC2)CC1 [compound 16, 5-cyclopropyl-N-(1-(1-methylpiperidine-4-carbonyl)piperidin-4-yl)isoxazole-3-carboxamide] | 10
24 | O=C(NC1CCN(C(=O)CC2CCNCC2)CC1)c1cc(C2CC2)on1 [compound 17, 5-cyclopropyl-N-(1-(2-(piperidin-4-yl)acetyl)piperidin-4-yl)isoxazole-3-carboxamide] | 1.06
25 | CN1CCC(CC(=O)N2CCC(NC(=O)c3cc(C4CC4)on3)CC2)CC1 [compound 18, 5-cyclopropyl-N-(1-(2-(1-methylpiperidin-4-yl)acetyl)piperidin-4-yl)isoxazole-3-carboxamide] | 5.08
26 | O=C(NC1CCN(C(=O)[C@@H](CO)Cc2ccccc2)CC1)c1cc(C2CC2)on1 [compound 19, (R)-N-(1-(2-benzyl-3-hydroxypropanoyl)piperidin-4-yl)-5-cyclopropylisoxazole-3-carboxamide] | 30.9
27 | N[C@H]1C[C@H](C(=O)N2CCC(NC(=O)c3cc(C4CC4)on3)CC2)C1 [compound 20, N-(1-((1r,3r)-3-aminocyclobutane-1-carbonyl)piperidin-4-yl)-5-cyclopropylisoxazole-3-carboxamide] | 5.77
